≈ marks a conversion by molar mass, not a printed value. Calls of active or inactive are those of the source. The rule behind the calls is not given here.
Tests used:
Escherichia coli = test: Inhibition of Escherichia coli FtsZ polymerization
[1] = target: T1, Cell division protein FtsZ (Bacillus subtilis (strain 168), UniProt P17865); test: Inhibition of Bacillus subtilis FtsZ polymerization
T1 sequence (P17865 whole entry): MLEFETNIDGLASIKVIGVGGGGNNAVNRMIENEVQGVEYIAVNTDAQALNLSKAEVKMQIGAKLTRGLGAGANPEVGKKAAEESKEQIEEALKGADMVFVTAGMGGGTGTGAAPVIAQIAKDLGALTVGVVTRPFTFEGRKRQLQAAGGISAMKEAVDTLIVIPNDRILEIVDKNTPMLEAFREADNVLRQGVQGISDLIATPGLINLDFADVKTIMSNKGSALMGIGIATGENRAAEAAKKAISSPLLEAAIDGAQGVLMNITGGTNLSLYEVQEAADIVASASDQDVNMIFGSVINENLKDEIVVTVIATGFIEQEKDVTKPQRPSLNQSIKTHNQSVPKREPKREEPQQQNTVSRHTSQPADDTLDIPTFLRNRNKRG

[2] = Inhibition of FtsZ GTPase
[3] = Inhibition of FtsZ polymerization

Row | Structure (SMILES) | inhibition (Escherichia coli) | IC50 [1] | IC50 [2] | IC50 [3]
1 | COc1cc(/C=C/C(=O)CC(=O)/C=C/c2ccc(O)c(OC)c2)ccc1O [CURCUMIN] | Active | 30 µM |  | 
2 | COC(=O)CC1Cc2cc3cc(OC)c(-c4c(OC)cc5cc6c(c(O)c5c4O)C(=O)OC(CC(=O)OC)C6)c(O)c3c(O)c2C(=O)O1 (centres undefined) [VIRIDITOXIN] |  |  | 7 µg/mL (≈ 10.6 µM) | 8.2 µg/mL (≈ 12.4 µM)

Source: ChEMBL document CHEMBL1240458, “Probing the binding site of curcumin in Escherichia coli and Bacillus subtilis FtsZ--a structural insight to unveil antibacterial activity of curcumin” (Eur J Med Chem, 2010)
